This experiment concerns the target Squalene monooxygenase (Sus scrofa). The experiment is described as follows: In vitro inhibition of pig liver microsomal squalene epoxidase (SE) by measuring the extend of cholesterol radiolabeling after incubation with [14C]mevalonate.

The structures appear in SMILES notation.

`CCN(CC#Cc1ccccc1N=[N+]=[N-])Cc1cccc(OCc2cc(-c3ccsc3)cs2)c1` [[3-(2-Azido-phenyl)-prop-2-ynyl]-[3-([3,3']bithiophenyl-5-ylmethoxy)-benzyl]-ethyl-amine]: the IC50 is over 100000 nM.

`CCN(CC#Cc1cccc(N=[N+]=[N-])c1)Cc1cccc(OCc2cc(-c3ccsc3)cs2)c1` [[3-(3-Azido-phenyl)-prop-2-ynyl]-[3-([3,3']bithiophenyl-5-ylmethoxy)-benzyl]-ethyl-amine] displayed an IC50 of 270 nM. Next, `CCN(CC#Cc1ccc(N=[N+]=[N-])cc1)Cc1cccc(OCc2cc(-c3ccsc3)cs2)c1` [[3-(4-Azido-phenyl)-prop-2-ynyl]-[3-([3,3']bithiophenyl-5-ylmethoxy)-benzyl]-ethyl-amine]: 960 nM; `CCN(CC#Cc1ccccc1)Cc1cccc(OCc2cc(-c3ccsc3)cs2)c1` [[3-([3,3']Bithiophenyl-5-ylmethoxy)-benzyl]-ethyl-(3-phenyl-prop-2-ynyl)-amine]: 100 nM; `CCN(C/C=C/C#CC(C)(C)C)Cc1cccc(OC[Si](C)(C)c2ccc(N=[N+]=[N-])cc2)c1` [(3-{[(4-Azido-phenyl)-dimethyl-silanyl]-methoxy}-benzyl)-(6,6-dimethyl-hept-2-en-4-ynyl)-ethyl-amine]: 520 nM.
